What was measured:
[1] = Acute toxicity in Kunming mouse assessed as fatality rate at 1000 mg/kg, po administered as single dose monitored for 7 days; type: organism-based; conditions: Kunming, in vivo, time 7 day, read-out: Activity
[2] = Subacute toxicity in Kunming mouse assessed as abnormal behavior at 25 mg/kg, po administered every other day for 14 days; type: organism-based; conditions: in vivo, 336 h, time 14 day
[3] = molecular target: Xanthine dehydrogenase/oxidase (Bos taurus, UniProt P80457); test: Inhibition of bovine XOD using xanthine as substrate assessed as inhibitory ratio at 10 uM by spectrophotometric analysis relative to control; conditions: cattle
Xanthine dehydrogenase/oxidase, sequence (P80457 whole entry): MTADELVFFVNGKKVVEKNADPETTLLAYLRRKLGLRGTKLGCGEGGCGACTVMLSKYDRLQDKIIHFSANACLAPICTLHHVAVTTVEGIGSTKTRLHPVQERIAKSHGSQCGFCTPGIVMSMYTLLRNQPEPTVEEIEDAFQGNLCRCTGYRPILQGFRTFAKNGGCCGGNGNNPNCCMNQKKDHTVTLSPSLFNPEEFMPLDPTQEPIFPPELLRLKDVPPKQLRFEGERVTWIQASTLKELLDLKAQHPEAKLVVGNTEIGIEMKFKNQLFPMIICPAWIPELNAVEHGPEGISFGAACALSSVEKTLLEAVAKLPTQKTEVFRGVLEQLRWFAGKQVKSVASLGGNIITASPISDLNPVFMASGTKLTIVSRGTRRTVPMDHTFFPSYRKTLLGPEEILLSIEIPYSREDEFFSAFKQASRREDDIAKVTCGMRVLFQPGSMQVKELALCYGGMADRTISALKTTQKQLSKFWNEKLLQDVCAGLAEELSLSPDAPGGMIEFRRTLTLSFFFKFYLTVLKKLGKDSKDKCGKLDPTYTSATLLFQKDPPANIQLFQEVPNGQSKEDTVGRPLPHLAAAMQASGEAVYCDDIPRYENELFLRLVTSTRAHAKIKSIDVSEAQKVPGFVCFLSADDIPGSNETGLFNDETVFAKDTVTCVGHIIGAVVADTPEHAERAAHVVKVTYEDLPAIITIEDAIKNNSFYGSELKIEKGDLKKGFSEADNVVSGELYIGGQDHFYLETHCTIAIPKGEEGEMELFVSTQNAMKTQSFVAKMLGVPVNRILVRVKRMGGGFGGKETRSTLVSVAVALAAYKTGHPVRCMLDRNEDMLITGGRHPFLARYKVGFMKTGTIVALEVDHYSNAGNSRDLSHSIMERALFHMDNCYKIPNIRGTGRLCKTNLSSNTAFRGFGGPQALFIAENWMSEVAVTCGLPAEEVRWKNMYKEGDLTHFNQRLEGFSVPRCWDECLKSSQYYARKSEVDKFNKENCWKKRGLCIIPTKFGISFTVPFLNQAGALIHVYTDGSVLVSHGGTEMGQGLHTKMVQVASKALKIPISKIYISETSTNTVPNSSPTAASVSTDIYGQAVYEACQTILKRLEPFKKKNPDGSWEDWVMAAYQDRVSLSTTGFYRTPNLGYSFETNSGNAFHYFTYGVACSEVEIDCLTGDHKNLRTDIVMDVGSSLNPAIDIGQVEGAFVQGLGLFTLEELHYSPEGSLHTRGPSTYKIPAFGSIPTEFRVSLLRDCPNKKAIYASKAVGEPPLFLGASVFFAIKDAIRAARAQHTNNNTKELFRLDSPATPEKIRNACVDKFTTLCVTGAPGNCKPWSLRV

[4] = Toxicity in Kunming female mouse assessed as coagulation necrosis of hepatocyte at 100 mg/kg, po administered every other day for 14 days by H and E staining based assay; type: organism-based; conditions: 336 h, time 14 day
[5] = test system: Rattus norvegicus; test: Reduction in serum uric acid level in po dosed acute hyperuricemia state Sprague-Dawley rat model assessed as SUA level (reference value: 955.20 +/- 85.56 uM); type: functional
[6] = test system: Rattus norvegicus; test: Reduction in serum uric acid level in po dosed acute hyperuricemia state Sprague-Dawley rat model assessed as SUA level by measuring decrease ratio relative to control; type: functional; set-up: scale not given: the % may be the effect or the level left
[7] = Acute toxicity in Kunming mouse assessed as fatality rate at 500 mg/kg, po administered as single dose monitored for 7 days; type: organism-based; conditions: Kunming, in vivo, time 7 day, read-out: Activity
[8] = test system: Mus musculus; test: Reduction in serum uric acid level in acute hyperuricemia state Kunming mouse model assessed as SUA level at 2 mg/kg, po (reference value: 1037 +/- 106.59 uM); type: functional
[9] = test system: Mus musculus; test: Reduction in serum uric acid level in acute hyperuricemia state Kunming mouse model assessed as SUA level by measuring decrease ratio at 2 mg/kg, po relative to control; type: functional; set-up: scale not given: the % may be the effect or the level left
[10] = Toxicity in Kunming female mouse assessed as balloon like degeneration of liver at 100 mg/kg, po administered every other day for 14 days by H and E staining based assay; type: organism-based; conditions: in vivo, 336 h, time 14 day
[11] = Toxicity in Kunming female mouse assessed as renal injury at 100 mg/kg, po administered every other day for 14 days by H and E staining based assay; type: organism-based; conditions: in vivo, 336 h, time 14 day
[12] = species: Mus musculus; test: Reduction in serum uric acid level in chronic hyperuricemia state Kunming mouse model assessed as SUA level (reference value: 660.33 +/- 103.57 uM); type: functional
[13] = species: Mus musculus; test: Reduction in serum uric acid level in acute hyperuricemia state Kunming mouse model assessed as SUA level; type: functional
[14] = species: Mus musculus; test: Reduction in serum uric acid level in chronic hyperuricemia state Kunming mouse model assessed as SUA level by measuring decrease ratio relative to control; type: functional; set-up: scale not given: the % may be the effect or the level left
[15] = species: Mus musculus; test: Reduction in serum uric acid level in acute hyperuricemia state Kunming mouse model assessed as SUA level by measuring decrease ratio relative to control; type: functional; set-up: concentration or dose not given beside the values

O=C(O)CSc1nnc(Br)n1-c1ccc(C2CC2)c2ccccc12
mortality at 168 h [1]: 60% | Activity [2]: Non-Toxic | inhibition at 10 µM [3]: 5.72% | Activity [4]: Toxic | Activity [5]: 685.6 µM | Activity [6]: 31.77% | mortality at 168 h [7]: 20% | Activity [8]: 706.25 µM | Activity [9]: 35.56% | Activity [10]: Toxic | Activity [11]: Toxic | Activity [12]: 476 µM | Activity [13]: 841.2 µM | Activity [14]: 33.56% | Activity [15]: 28.5%

— ChEMBL document CHEMBL5528083, “Discovery of a Novel Thienopyrimidine Compound as a Urate Transporter 1 and Glucose Transporter 9 Dual Inhibitor with Improved Efficacy and Favorable Druggability” (J Med Chem, 2024)
